Results as given in paper PMC9733406 (ACS nano, 2022).
Residues, ends and D or L forms follow the SMILES beside them.

How the values were obtained:
bovine serum albumin = assay: MicroScale Thermophoresis; type: binding; settings: MST, FITC-labelled peptide
[1] = biological target: MMP-2 targeting peptide (FITC-AA-…); assay: MST

nonspecific binding to bovine serum albumin (bovine serum albumin) | Kd [1] [µM] | Molecule
does not bind nonspecifically |  | CC[C@H](C)[C@H](NC(=O)[C@H](CC(=O)O)NC(=O)[C@H](CC(C)C)NC(=O)[C@H](Cc1ccccc1)NC(=O)[C@H](CCC(=O)O)NC(=O)[C@H](CCC(N)=O)NC(=O)[C@H](CCCCN)NC(=O)[C@@H]1CCCN1C(=O)[C@H](C)NC(=O)[C@H](C)NC(=O)CNC(=O)[C@H](CCCNC(=N)N)NC(=O)[C@H](C)NC(=O)[C@H](C)NC(=S)Nc1ccc2c(c1)C(=O)OC21c2ccc(O)cc2Oc2cc(O)ccc21)C(=O)N[C@@H](CCC(=O)O)C(N)=O [MMP-2 targeting peptide] (HELM PEPTIDE1{[O=C1OC2(c3ccc(O)cc3Oc3cc(O)ccc32)c2ccc(NC(=S)[*:2])cc21].A.A.R.G.A.A.P.K.Q.E.F.L.D.I.E.[am]}$$$$V2.0)
 | 0.0828 | recombinant human MMP-2 (from UniProt P08253 30-660) (enzyme)
